Reference: ChEMBL document CHEMBL3227988, “Synthesis and antiviral activities of arabinofuranosyl-5-ethylpyrimidine nucleosides. Selective antiherpes activity of 1-(beta-D-arabinofuranosyl)-5-ethyluracil” (J Med Chem, 1979)
Converted amounts (≈) assume the structure as drawn. The source made the active and inactive calls. No cut-off for these calls is given here.

Tests used:
[1] = tested on: Vaccinia virus; assay: Antiviral activity against Vaccinia virus infected in human skin fibroblast cells assessed as inhibition of virus-induced cytopathogenicity treated immediately after virus adsorption measured 2 to 3 days after virus infection; format: functional; settings: Orthopoxvirus vaccinia
[2] = tested on: Vaccinia virus; assay: Antiviral activity against Vaccinia virus infected in human skin fibroblast cells assessed as inhibition of virus-induced cytopathogenicity at 200 ug/ml treated immediately after virus adsorption measured 2 to 3 days after virus infection; format: functional, organism-based; settings: Orthopoxvirus vaccinia

Compound	MIC [1] [µg/mL]	inhibition [2]
Nc1ccn([C@@H]2O[C@H](CO)[C@@H](O)[C@@H]2O)c(=O)n1 [CYTARABINE]	0.02 (≈ 0.0822 µM)	
CCc1cn([C@H]2O[C@H](CO)[C@@H](O)[C@@H]2O)c(=O)[nH]c1=O		inactive
CCc1cn([C@@H]2O[C@H](CO)[C@@H](O)[C@@H]2O)c(=O)[nH]c1=O	> 200	
CCc1cn([C@H]2O[C@H](CO)[C@@H](O)[C@@H]2O)c(=O)nc1N		inactive
Cc1cn([C@@H]2O[C@H](CO)[C@@H](O)[C@@H]2O)c(=O)[nH]c1=O	2 (≈ 7.75 µM)	
O=c1ccn([C@@H]2O[C@H](CO)[C@@H](O)[C@@H]2O)c(=O)[nH]1 [ARAURIDINE]	> 200	
CCc1cn([C@@H]2O[C@H](CO)[C@@H](O)[C@@H]2O)c(=O)nc1N	> 200	
